The text below walks through data of patent US9006139B2, “Active compound combinations” (Bayer Intellectual Property GmbH, priority 2009, dated 2015).

Common to all, as to type: in vivo
Assay [1] deals with Sphaerotheca fuliginea. The assay can be described thus: Sphaerotheca test (cucumbers)/protective. The settings on record: Table C, test 4; 5 ppm a.i. As to the method: (§1) Solvent: 24.5 parts by weight of acetone
(§2) • 24.5 parts by weight of dimethylacetamide Emulsifier: 1 part by weight of alkylaryl polyglycol ether
To produce a suitable preparation of active compound, 1 part by weight of active compound is mixed with the stated amounts of solvent and emulsifier, and the concentrate is diluted with water to the desired concentration. To test for protect activity, young plants are sprayed with the preparation of active compound at the stated rate of application. After the spray coating has dried on, the plants are inoculated with an aqueous spore suspension of Sphaerotheca fuliginea. The plants are then placed in a greenhouse at approximately 23° C. and a relative atmospheric humidity of approximately 70%. The test is evaluated 7 days after the inoculation. 0% means an efficacy which corresponds to that of the control, while an efficacy of 100% means that no disease is observed.

The test system of assay [2] is Alternaria solani. The assay can be described thus: Alternaria test (tomatoes)/protective. As to conditions: Table E, test 2, 2.5 ppm a.i.; for pest or weed control at 2.5 ppm: Alternaria solani, 72 h, read-out: Efficacy in % found. As to the method:
as §1, §2
(§3) To produce a suitable preparation of active compound, 1 part by weight of active compound is mixed with the stated amounts of solvent and emulsifier, and the concentrate is diluted with water to the desired concentration. To test for protective activity, young plants are sprayed with the preparation of active compound at the stated rate of application. After the spray coating has dried on, the plants are inoculated with an aqueous spore suspension of Alternaria solani. The plants are then placed in an incubation cabinet at approximately 20° C. and a relative atmospheric humidity of 100%. The test is evaluated 3 days after the inoculation. 0% means an efficacy which corresponds to that of the control while an efficacy of 100% means that no disease is observed.

Assay [3] deals with Puccinia triticina. The assay is described as follows: Puccinia triticina-test (wheat)/preventive. As to conditions: Table M; 62.5 ppm a.i. How it is done:
(§4) Solvent: 49 parts by weight of n,n-dimethylacetamid
(§5) Emulsifier: 1 part by weight of alkylaryl polyglycol ether
To produce a suitable preparation of active compound, 1 part by weight of active compound or active compound combination is mixed with the stated amounts of solvent and emulsifier, and the concentrate is diluted with water to the desired concentration. To test for preventive activity, young plants are sprayed with the preparation of active compound or active compound combination at the stated rate of application. After the spray coating has been dried, the plants are sprayed with a spore suspension of Puccinia triticina. The plants remain for 48 hours in an incubation cabinet at approximately 20° C. and a relative atmospheric humidity of approximately 100%. The plants are placed in the greenhouse at a temperature of approximately 20° C. and a relative atmospheric humidity of approximately 80%. The test is evaluated 8 days after the inoculation. 0% means an efficacy which corresponds to that of the untreated control, while an efficacy of 100% means that no disease is observed.

The test system of assay [4] is Botrytis cinerea. The assay can be described thus: Botrytis test (beans)/protective. The settings on record: Botrytis cinerea, 48 h, Table F, test 3, read-out: Efficacy in % found. How it is done:
as §1, §2
To produce a suitable preparation of active compound, 1 part by weight of active compound is mixed with the stated amounts of solvent and emulsifier, and the concentrate is diluted with water to the desired concentration. To test for protective activity, young plants are sprayed with the preparation of active compound. After the spray coating has dried on, 2 small pieces of agar covered with growth of Botrytis cinerea are placed on each leaf. The inoculated plants are placed in a darkened chamber at 20° C. and a relative atmospheric humidity of 100%. 2 days after the inoculation, the size of the lesions on the leaves is evaluated. 0% means an efficacy which corresponds to that of the control, while an efficacy of 100% means that no disease is observed.

For assay [5], the system named is Blumeria graminis fsp. tritici. The assay can be described thus: Blumeria test (wheat)/preventive. The settings on record: Table G; 62.5 ppm a.i. As to the method:
as §4, §5
To produce a suitable preparation of active compound, 1 part by weight of active compound or active compound combination is mixed with the stated amounts of solvent and emulsifier, and the concentrate is diluted with water to the desired concentration. To test for preventive activity, young plants are sprayed with the preparation of active compound or active compound combination at the stated rate of application. After the spray coating has been dried, the plants are dusted with spores of Blumeria graminis fsp. tritici. The plants are placed in the greenhouse at a temperature of approximately 18° C. and a relative atmospheric humidity of approximately 80% to promote the development of mildew pustules. The test is evaluated 7 days after the inoculation. 0% means an efficacy which corresponds to that of the untreated control, while an efficacy of 100% means that no disease is observed.

For assay [6], the system named is Phytophthora infestans. The assay can be described thus: whole plant or invertebrate. The settings on record: Phytophthora infestans, 72 h, read-out: Efficacy in % found, Table A, test 1; 1 ppm a.i.
Assay [7] relates to Plasmopara viticola. The assay is described as follows: Plasmopara test (grapevines)/protective. The settings on record: Table B. How it is done: as §1, §2
as §3, with “Plasmopara viticola and” for “Alternaria solani. The plants are”, “remain for 1 day” for “placed”, “The plant is subsequently placed for 4 days in a greenhouse at approximately 21° C. and a relative atmospheric humidity of approximately 90%. The plants are then misted and placed for 1 day in an incubation cabinet. The” for “The”, “6” for “3”, “control,” for “control”

The test system of assay [8] is Fusarium graminearum. As to conditions: Table L; 62.5 ppm a.i.

Consider `CO/C=C(/C(=O)OC)c1ccccc1COc1cccc(C(F)(F)F)n1` [(3.12), picoxystrobin], for which the “Efficacy in % found” value in assay [1] came to 62%; in assay [2], 60%; in assay [3], 80%.

For `CNC(=O)/C(=N/OC)c1ccccc1Oc1ccccc1` [(3.10), metominostrobin], the pest or weed control at 2.5 ppm in assay [2] worked out at 15%. Moreover, the pest or weed control at 50 ppm in assay [4] (50 ppm a.i.) was determined as 55%. Also, in assay [5], the “Efficacy in % found” value was 13%.

For `CCC(C)(NC(=O)c1cc(Cl)c(C)c(Cl)c1)C(=O)CCl` (stereo not drawn) [(4.9), zoxamide], the pest or weed control at 1 ppm in assay [6] was 58%. The “Efficacy in % found” value in assay [7] (2 ppm a.i.) turned out to be 6%.

`CCCC1COC(Cn2cncn2)(c2ccc(Cl)cc2Cl)O1` (stereo not drawn) [(1.40), propiconazole]: the “Efficacy in % found” value in assay [5] amounted to 38%.

Consider `C#CCOc1ccc(CCNC(=O)C(OCC#C)c2ccc(Cl)cc2)cc1OC` (stereo not drawn) [(9.5), mandipropamid], for which, in assay [7] (1 ppm a.i.), the “Efficacy in % found” value came out at 57%.

With `CC(C)CC(C)c1sccc1NC(=O)c1cn(C)nc1C(F)(F)F` (stereo not drawn) [(2.20), penthiopyrad], the pest or weed control at 2.5 ppm in assay [2] was determined as 50%; in assay [4] (2.5 ppm a.i.) it was 65%. Further, the “Efficacy in % found” value in assay [3] was 70%.

As for `Cc1ccc(-c2c(Cl)nc(C#N)n2S(=O)(=O)N(C)C)cc1` [(3.3), cyazofamid], the “Efficacy in % found” value in assay [7] (1 ppm a.i.) amounted to 0%.

In the case of `CC1(C)CCC(Cc2ccc(Cl)cc2)C1(O)Cn1cncn1` (stereo not drawn) [1.30, metconazole], the “Efficacy in % found” value in assay [8] is recorded as 0%.
